Data published in a compilation of properties of binary mixtures (doi:10.1007/s10953-011-9788-x).

Assay: xn = mol fraction of the nth substance listed
Settings: 101 kPa

CCCC[n+]1ccn(C)c1.N[C@@H](CCC(=O)O)C(=O)[O-] + CO
viscosity (298.15 K, x2 = 0.1087): 59.8 mPa·s | viscosity (298.15 K, x2 = 0.4003): 24.6 mPa·s | viscosity (298.15 K, x2 = 0.4998): 16.4 mPa·s | viscosity (298.15 K, x2 = 0.6002): 9.69 mPa·s | viscosity (298.15 K, x2 = 0.8001): 2.31 mPa·s | viscosity (303.15 K, x2 = 0.1087): 49.9 mPa·s | viscosity (303.15 K, x2 = 0.2002): 39.6 mPa·s | viscosity (303.15 K, x2 = 0.2995): 30.3 mPa·s | viscosity (303.15 K, x2 = 0.4003): 22.2 mPa·s | viscosity (303.15 K, x2 = 0.4998): 15.3 mPa·s | viscosity (303.15 K, x2 = 0.7): 5.48 mPa·s | viscosity (303.15 K, x2 = 0.8001): 2.82 mPa·s | viscosity (303.15 K, x2 = 0.9): 1.48 mPa·s | viscosity (308.15 K, x2 = 0.1087): 39.1 mPa·s | viscosity (308.15 K, x2 = 0.2002): 31.2 mPa·s | viscosity (308.15 K, x2 = 0.2995): 24.1 mPa·s | viscosity (308.15 K, x2 = 0.4003): 18.1 mPa·s | viscosity (308.15 K, x2 = 0.4998): 12.9 mPa·s | viscosity (308.15 K, x2 = 0.7): 5.2 mPa·s | viscosity (308.15 K, x2 = 0.9): 1.33 mPa·s | viscosity (313.15 K, x2 = 0.1087): 31.6 mPa·s | viscosity (313.15 K, x2 = 0.2995): 20 mPa·s | viscosity (313.15 K, x2 = 0.4003): 15 mPa·s | viscosity (313.15 K, x2 = 0.4998): 10.8 mPa·s | viscosity (313.15 K, x2 = 0.6002): 7.3 mPa·s | viscosity (313.15 K, x2 = 0.8001): 2.54 mPa·s | viscosity (313.15 K, x2 = 0.9): 1.24 mPa·s
